Key:
striatum slices = experiment: Fluorescent labeling of striatum slices; format: cell-based, mouse; conditions: 25 μM, 1 h, 37 °C
Procedure: The compatibility of the fluorescent compounds of the invention was determined in brain slices from newborns mice, a study model with greater integrity than cell culture. Mice aged 4 to 7 days are decapitated. The brains are removed and then placed in Neurobasal™-A Medium (10888022, ThermoFisher Scientific) enriched with 2% B-27™ Plus (A3582801, ThermoFisher Scientific) and 1% (volume/volume) of a mixture of streptomycin (10 mg/mL)/penicillin (10,000 U/mL). The brains are cut into 500 μm thick slices (McIlwain Tissue Chopper, model TC752) then dissociated from each other. The slices corresponding to the striatum are selected and incubated for one hour in the medium in the presence of 25 μM of fluorescent ligand, or without fluorescent molecule for the controls. Incubations in the presence or absence of the reference VGLUT inhibitor were carried out.
The brain slices were incubated in the presence of each of the compounds according to the invention D04, C07, C05, B09, L8, YL151, G02, F11 (See reference correspondences in Table 1). FIG. 4 illustrates the quantification of fluorescence of striatum slices after incubation in the presence of fluorescent compounds of the invention. […] Acquisitions were carried out using a confocal microscope (×5 objective) and the average fluorescence intensity for each slice was quantified. […]

[1] = test system: VGLUT3 (BON VGLUT3 cells); experiment: Confocal fluorescence labeling of BON cells expressing VGLUT3; format: cell-based, human (BON cells); conditions: for intensity of labeling in BON VGLUT3 cells relative to BON WT cells: FIG. 3, 20 minutes; for intensity of labeling in BON VGLUT3 cells relative to BON WT cells / fluorescence intensity in BON VGLUT3 cells relative to BON WT cells / labeling in cytoplasm of BON VGLUT3 cells: 37 °C; for fluorescence intensity in BON VGLUT3 cells relative to BON WT cells / labeling in cytoplasm of BON VGLUT3 cells / effect of LSP5 pretreatment on fluorescence intensity in BON VGLUT3 cells: FIG. 2; for fluorescence intensity in BON VGLUT3 cells relative to BON WT cells / labeling in cytoplasm of BON VGLUT3 cells: 1 h; for effect of LSP5 pretreatment on fluorescence intensity in BON VGLUT3 cells: pretreatment with LSP5-2157
Procedure: A “BON” cell line describes cells derived from human pancreatic carcinoma; the article by Ramet L. et al., published in J Neurosci, 2017, 37 (15), 4181-4199, describes such cells and the use thereof for the characterization of VGLUT type transporters.
(§1) The experiments are carried out with a BON cell line stably expressing VGLUT3 or a fluorescent VGLUT2 “VGLUT2-venus”. Wild non-transfected BON cells (“wild-type”, BON WT) are used as controls. The cells are cultured in F-12 Nutrient Mixture Ham medium (21765-029, Thermo Fisher Scientific) and Dulbecco's Modified Eagle's Medium High Glucose (DMEM HG, 31966021, Thermo Fisher Scientific; volume/volume), supplemented with 10% fetal calf serum (FCS, 12483012, Thermo Fisher Scientific) and 1% (volume/volume) of a mixture of streptomycin (10 mg/mL)/penicillin (10,000 U/mL) and […] an incubator at 37 °C under 5% CO2. For the transfected clones, the medium is enriched with 0.8 mg/mL Geneticin G418 sulfate (G418, 10131027, Thermo Fisher Scientific).
The cells are cultured in 25 cm^2 culture flasks. When the cells are at confluence, they are rinsed with sterile PBS 1× after aspiration of the medium, then incubated for five minutes at 37 °C with a solution of trypsin-EDTA (0.05% trypsin EDTA, 25300054, Thermo Fisher Scientific. The cell layer is then detached and the cells dissociated from each other. After addition of medium, the cell suspension is centrifuged for 5 minutes at 300 g, then the pellet is diluted 1:3 in order to be recultivated.
(§2) Two days before each experiment, after trypsinization of the cells from a culture flask, the cell suspension is seeded at 150,000 cells/well, in twelve-well plates on glass coverslips 19 mm in diameter. For observation, these coverslips are placed in a chamber allowing a hermetic fixation of the coverslip in the observation medium, Fluorobrite™ DMEM (A1896701, Thermo Fisher Scientific), a transparent medium.
(§3) Before each observation, the cells are incubated at 37 °C in the presence of fluorescent ligands, at previously determined concentrations. The effect of a pretreatment of BON cells with a specific inhibitor of VGLUTs, the substance LSP5-2157, is also performed to study the inhibitory effect of this substance on the labeling of BON cells with the fluorescent ligands of the invention.
(§4) The cells are observed in real time under an inverted confocal microscope, with a 63× objective in a room thermostated at 37 °C (Leica TCS SP5; cellular imaging platform of the Paris-Seine Institute of Biology). The studied fluorescent molecules emit in the blue, the cells are excited at 405 nm.
(§5) FIG. 2 illustrates the observation and quantification of the BON cells under a confocal microscope, and the inhibition of the fluorescent signal by a pretreatment of the cells with the specific VGLUT inhibitor, LSP5-2157. […] The images are presented in negative. D,H,L and P: Quantification of the treatment effect.
Different acquisitions of cells are carried out using a confocal microscope. […] Statistical analysis: Kruskal-Wallis test followed by Dunn's post-hoc test, NS: non-significant, *p<0.01; ***p<0.0001.
FIG. 3 illustrates the observation and quantification of BON cells using a confocal microscope. Wild-type cells (BON WT) or VGLUT3-expressing cells (BON VGLUT3) are incubated with different fluorescent ligands referenced: L8, YL151, D04, C07, C05, B09, G02, F11. After treatment with fluorescent ligands for 20 minutes at 37 °C, a fluorescent labeling is visible in BON cells. The effect of the treatment is analyzed by quantifying the fluorescence intensity in each cell type. […] Statistical analysis: Mann Whitney test, NS: non-significant, **p=0.0042; ***p<0.0001.

BON WT cells = experiment: Confocal fluorescence labeling of wild-type BON cells; format: cell-based, human; conditions: FIG. 2
Procedure: as §1, §2, §3, §4, §5

[2] = test system: glutamatergic synaptic vesicles (VGLUT1); experiment: Double labeling of isolated glutamatergic synaptic vesicles (VGLUT1 immunolabeling and fluorescent ligand); conditions: FIG. 7; confocal and STED
Procedure: Tests were performed in order to check the compatibility of the novel fluorescent ligands of the invention and a labeling by immunohistochemistry. Indeed, ultimately, combining a labeling of VAChT by immunohistochemistry and of VGLUT3 by a fluorescent ligand would allow obtaining more information on the distribution of these vesicular transporters in the striatum.
FIG. 7 illustrates the glutamatergic vesicular labeling by immunohistochemistry and the fluorescent ligand referenced G02 according to the invention. In particular, isolated glutamatergic synaptic vesicles were double labeled by immunolabeling of VGLUT1 (in red) and the fluorescent ligand G02 (in green). The observations were carried out using confocal microscopy and STED. […] In order to more accurately analyze the spot colocalization, it seems more appropriate to use lower and therefore more separated concentrations of vesicles.

| SMILES | difference between ester (F11) and acid (G02) labeling of slices (striatum slices) | intensity of labeling in BON VGLUT3 cells relative to BON WT cells [1] | labeling in cytoplasm of BON WT cells (BON WT cells) | fluorescence intensity in BON VGLUT3 cells relative to BON WT cells [1] | labeling in cytoplasm of BON VGLUT3 cells [1] | effect of LSP5 pretreatment on fluorescence intensity in BON VGLUT3 cells [1] | double labeling spots (compatibility with immunohistochemistry) [2] |
| --- | --- | --- | --- | --- | --- | --- | --- |
| CCOC(=O)c1cc2cc(C#Cc3ccc(-c4ccc(N)cc4)cc3)c(O)cc2oc1=O [F11, Ethyl-6-((4′-amino-[1,1′-biphenyl]-4-yl)ethynyl)-7-hydroxy-2-oxo-2H-chromene-3-carboxylate] | no significant difference between the compounds G02 and F11 | increases significantly | – | – | – | – | – |
| O=C(O)c1cc(C(=O)O)c2cc(-c3ccc(-c4ccccc4)cc3)ccc2n1 [LSP13-1152-YL152 (L8), 6-(Biphenyl-4-yl) quinoline-2,4-dicarboxylic Acid] | – | increases significantly | a weak and homogeneous labeling is detected | significantly increases | a punctiform labeling appears | decreases the fluorescence intensity | – |
| Nc1ccc(-c2ccc(-c3cn(-c4ccc5oc(=O)c(C(=O)O)cc5c4)nn3)cc2)cc1 [LSP17-1115, 6-(4-(4′-amino-[1,1′-biphenyl]-4-yl)-1H-1,2,3-triazol-1-yl)-2-oxo-2H-chromene-3-carboxylic Acid] | – | increases significantly | – | – | – | – | – |
| COc1cc2oc(=O)c(C(=O)O)cc2cc1-n1cc(-c2ccc(-c3ccc(N)cc3)cc2)nn1 [LSP17-1124, 6-(4-(4′-amino-[1,1′-biphenyl]-4-yl)-1H-1,2,3-triazol-1-yl)-7-methoxy-2-oxo-2H-chromene-3-carboxylic Acid] | – | increases significantly | – | – | – | – | – |
| Nc1ccc(-c2ccc(C#Cc3cc4cc(C(=O)O)c(=O)oc4cc3O)cc2)cc1 [LSP17-1173, 6-((4′-amino-[1,1′-biphenyl]-4-yl)ethynyl)-7-hydroxy-2-oxo-2H-chromene-3-carboxylic Acid] | no significant difference between the compounds G02 and F11 | increases significantly | a weak and homogeneous labeling is detected | significantly increases | a punctiform labeling appears | decreases the fluorescence intensity | The obtained spots are clear and resolved |
